Source: the NIST ThermoML archive (doi:10.1021/je200721d)

Assay: xn = mol fraction of the nth substance listed
Settings: Liquid, Vibrating tube method

CCCCCCCC [octane] + CCCCCC
Settings	mass density [kg/m3]
362.88 K, 4000 kPa, x2 = 0.1654	644.35
362.88 K, 4000 kPa, x2 = 0.2199	642.17
362.88 K, 5000 kPa, x2 = 0.1654	645.69
362.88 K, 5000 kPa, x2 = 0.2199	643.54
362.88 K, 6000 kPa, x2 = 0.1654	647.04
362.88 K, 6000 kPa, x2 = 0.2199	644.88
362.88 K, 7000 kPa, x2 = 0.1654	648.35
362.88 K, 7000 kPa, x2 = 0.2199	646.21
362.88 K, 8000 kPa, x2 = 0.1654	649.64
362.88 K, 8000 kPa, x2 = 0.2199	647.53
362.88 K, 9000 kPa, x2 = 0.1654	650.92
362.88 K, 9000 kPa, x2 = 0.2199	648.82
362.88 K, 10000 kPa, x2 = 0.1654	652.16
362.88 K, 10000 kPa, x2 = 0.2199	650.09
362.88 K, 11000 kPa, x2 = 0.1654	653.43
362.88 K, 11000 kPa, x2 = 0.2199	651.35
362.88 K, 12000 kPa, x2 = 0.1654	654.65
362.88 K, 12000 kPa, x2 = 0.2199	652.59
362.88 K, 13000 kPa, x2 = 0.1654	655.84
362.88 K, 13000 kPa, x2 = 0.2199	653.81
362.88 K, 14000 kPa, x2 = 0.1654	657.01
362.88 K, 14000 kPa, x2 = 0.2199	654.99
362.88 K, 15000 kPa, x2 = 0.1654	658.17
362.88 K, 15000 kPa, x2 = 0.2199	656.16
362.88 K, 16000 kPa, x2 = 0.1654	659.3
362.88 K, 16000 kPa, x2 = 0.2199	657.29
362.88 K, 17000 kPa, x2 = 0.1654	660.41
362.88 K, 17000 kPa, x2 = 0.2199	658.42
362.88 K, 18000 kPa, x2 = 0.1654	661.5
362.88 K, 18000 kPa, x2 = 0.2199	659.52
362.88 K, 19000 kPa, x2 = 0.1654	662.58
362.88 K, 19000 kPa, x2 = 0.2199	660.6
362.88 K, 20000 kPa, x2 = 0.1654	663.6
362.88 K, 20000 kPa, x2 = 0.2199	661.65
362.88 K, 21000 kPa, x2 = 0.1654	664.63
362.88 K, 21000 kPa, x2 = 0.2199	662.67
362.88 K, 22000 kPa, x2 = 0.1654	665.63
362.88 K, 22000 kPa, x2 = 0.2199	663.67
362.88 K, 23000 kPa, x2 = 0.1654	666.61
362.88 K, 23000 kPa, x2 = 0.2199	664.66
362.88 K, 24000 kPa, x2 = 0.1654	667.57
362.88 K, 24000 kPa, x2 = 0.2199	665.61
362.88 K, 25000 kPa, x2 = 0.1654	668.52
362.88 K, 25000 kPa, x2 = 0.2199	666.56
362.89 K, 1000 kPa, x2 = 0.9308	599.76
362.89 K, 2000 kPa, x2 = 0.9308	601.55
362.89 K, 3000 kPa, x2 = 0.9308	603.31
362.89 K, 4000 kPa, x2 = 0.9308	605.04
362.89 K, 5000 kPa, x2 = 0.9308	606.72
362.89 K, 6000 kPa, x2 = 0.9308	608.38
362.89 K, 7000 kPa, x2 = 0.9308	610.01
362.89 K, 8000 kPa, x2 = 0.9308	611.58
362.89 K, 9000 kPa, x2 = 0.9308	613.16
362.89 K, 10000 kPa, x2 = 0.9308	614.68
362.89 K, 11000 kPa, x2 = 0.9308	616.17
362.89 K, 12000 kPa, x2 = 0.9308	617.64
362.89 K, 13000 kPa, x2 = 0.9308	619.07
362.89 K, 14000 kPa, x2 = 0.9308	620.48
362.89 K, 15000 kPa, x2 = 0.9308	621.85
362.89 K, 16000 kPa, x2 = 0.9308	623.2
362.89 K, 17000 kPa, x2 = 0.9308	624.51
362.89 K, 18000 kPa, x2 = 0.9308	625.8
362.89 K, 19000 kPa, x2 = 0.9308	627.06
362.89 K, 20000 kPa, x2 = 0.9308	628.28
362.89 K, 21000 kPa, x2 = 0.9308	629.48
362.89 K, 22000 kPa, x2 = 0.9308	630.64
362.89 K, 23000 kPa, x2 = 0.9308	631.79
362.89 K, 24000 kPa, x2 = 0.9308	632.9
362.89 K, 25000 kPa, x2 = 0.9308	634.01
362.9 K, 1000 kPa, x2 = 0.7995	608.76
362.9 K, 2000 kPa, x2 = 0.7995	610.47
362.9 K, 3000 kPa, x2 = 0.7995	612.13
362.9 K, 4000 kPa, x2 = 0.7995	613.77
362.9 K, 5000 kPa, x2 = 0.7995	615.41
362.9 K, 6000 kPa, x2 = 0.7995	616.94
362.9 K, 7000 kPa, x2 = 0.7995	618.5
362.9 K, 8000 kPa, x2 = 0.7995	620.01
362.9 K, 9000 kPa, x2 = 0.7995	621.5
362.9 K, 10000 kPa, x2 = 0.7995	622.96
362.9 K, 11000 kPa, x2 = 0.7995	624.39
362.9 K, 12000 kPa, x2 = 0.7995	625.81
362.9 K, 13000 kPa, x2 = 0.7995	627.18
362.9 K, 14000 kPa, x2 = 0.7995	628.53
362.9 K, 15000 kPa, x2 = 0.7995	629.85
362.9 K, 16000 kPa, x2 = 0.7995	631.14
362.9 K, 17000 kPa, x2 = 0.7995	632.42
362.9 K, 18000 kPa, x2 = 0.7995	633.67
362.9 K, 19000 kPa, x2 = 0.7995	634.88
362.9 K, 20000 kPa, x2 = 0.7995	636.08
362.9 K, 21000 kPa, x2 = 0.7995	637.22
362.9 K, 22000 kPa, x2 = 0.7995	638.34
362.9 K, 23000 kPa, x2 = 0.7995	639.44
362.9 K, 24000 kPa, x2 = 0.7995	640.51
362.9 K, 25000 kPa, x2 = 0.7995	641.57
